Assay results reported in patent US9758561B2 (priority 2014, dated 2017).
Converted amounts (≈) assume the structure as drawn. Where two headings read alike, the source gives them in different places.

Key:
[1] = target: T1, human GLP-1 receptor (Homo sapiens, UniProt P43220); assay: cAMP response of HEK-293 cells stably expressing human GLP-1 receptor (HTRF); assay type: cell-based; conditions: Table 6; read-out: EC50 hGLP-1R
T1 construct: expressed in transfected cells; host or cells: HEK-293
Description: (§1) For preparation, cells were split into T175 culture flasks and grown overnight to near confluency in medium (DMEM/10% FBS). Medium was then removed and cells washed with PBS lacking calcium and magnesium, followed by proteinase treatment with accutase (Sigma-Aldrich cat. no. A6964). Detached cells were washed and resuspended in assay buffer (1×HBSS; 20 mM HEPES, 0.1% BSA, 2 mM IBMX) and cellular density determined. They were then diluted to 400000 cells/ml and 25 μl-aliquots dispensed into the wells of 96-well plates. For measurement, 25 μl of test compound in assay buffer was added to the wells, followed by incubation for 30 minutes at room temperature. […] Potencies of peptidic compounds at the GLP-1, glucagon and GIP receptors were determined by exposing cells expressing human glucagon receptor (hGlucagon R), human GIP receptor (hGIP-R) or human GLP-1 receptor (hGLP-1R) to the listed compounds at increasing concentrations and measuring the formed cAMP as described in Methods.

[2] = target: T2, human glucagon receptor (Homo sapiens, UniProt P47871); assay: cAMP response of HEK-293 cells stably expressing human glucagon receptor (HTRF); assay type: cell-based; conditions: read-out: EC50 hGlucagon-R
T2 construct: expressed in transfected cells; host or cells: HEK-293
T2 sequence (P47871 26-477): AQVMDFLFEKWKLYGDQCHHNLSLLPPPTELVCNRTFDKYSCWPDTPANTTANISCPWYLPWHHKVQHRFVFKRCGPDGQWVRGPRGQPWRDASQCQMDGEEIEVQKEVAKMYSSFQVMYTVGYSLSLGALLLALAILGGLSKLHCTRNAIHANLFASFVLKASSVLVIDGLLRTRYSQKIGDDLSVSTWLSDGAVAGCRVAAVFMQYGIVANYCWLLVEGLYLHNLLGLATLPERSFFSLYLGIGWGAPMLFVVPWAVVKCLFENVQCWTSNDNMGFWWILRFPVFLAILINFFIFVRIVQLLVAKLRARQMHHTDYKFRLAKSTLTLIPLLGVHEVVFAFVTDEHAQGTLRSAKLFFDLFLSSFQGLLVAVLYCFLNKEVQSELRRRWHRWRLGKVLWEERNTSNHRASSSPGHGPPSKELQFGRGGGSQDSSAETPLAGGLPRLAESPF
Description: as §1

[3] = target: T3, human GIP receptor (Homo sapiens, UniProt P48546); assay: cAMP response of HEK-293 cells stably expressing human GIP receptor (HTRF); assay type: cell-based; conditions: Table 6; read-out: EC50 hGIP-R
T3 construct: expressed in transfected cells; host or cells: HEK-293
T3 sequence (P48546 22-466): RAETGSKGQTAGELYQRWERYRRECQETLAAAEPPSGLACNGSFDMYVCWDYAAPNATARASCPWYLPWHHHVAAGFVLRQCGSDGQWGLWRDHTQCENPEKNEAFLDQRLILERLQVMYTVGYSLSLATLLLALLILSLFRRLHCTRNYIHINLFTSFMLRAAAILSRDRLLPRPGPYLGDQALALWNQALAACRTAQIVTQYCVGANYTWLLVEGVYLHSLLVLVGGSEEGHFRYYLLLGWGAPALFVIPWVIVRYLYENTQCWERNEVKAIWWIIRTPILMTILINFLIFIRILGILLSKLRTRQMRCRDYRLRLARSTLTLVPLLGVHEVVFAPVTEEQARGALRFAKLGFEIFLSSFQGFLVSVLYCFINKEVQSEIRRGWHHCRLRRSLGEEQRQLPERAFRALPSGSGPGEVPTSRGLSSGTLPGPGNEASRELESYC
Description: as §1

[4] = Solubility testing in buffer (HPLC-UV); assay type: physicochemical
Description: Prior to the testing of solubility and stability of a peptide batch, its purity (HPLC-UV) was determined. […] Therefore, solutions from solid samples were prepared in different buffer systems with a concentration of 10 mg/mL compound based on the previously determined % purity. HPLC-UV was performed after 2 h of gentle agitation from the supernatant, which was obtained by 20 min of centrifugation at 4500 rpm. […] This analysis also served as starting point (t0) for the stability testing.

[5] = Stability testing in solution, 7 days at 40° C. (HPLC-UV); assay type: physicochemical; conditions: for Stability pH 4.5: pH 4.5, 7 days at 40° C. in solution; for Stability pH 7.4: pH 7.4, 7 days at 40° C. in solution
Description: After that time course, the sample was centrifuged for 20 min at 4500 rpm and 0.2 μL of the supernatant were analysed with HPLC-UV.
For determination of the amount of the remaining peptide, the peak areas of the target compound at t0 and t7 were compared, resulting in “% remaining peptide”, following the equation % remaining peptide=[(peak area peptide t7)×100]/peak area peptide t0.
The stability is expressed as “% remaining peptide”.

[6] = pH 4.5, target concentration 10 mg/ml, read-out: solubility pH 4.5
[7] = pH 7.4, target concentration 10 mg/ml, read-out: solubility pH 7.4

T1 sequence (P43220 24-463): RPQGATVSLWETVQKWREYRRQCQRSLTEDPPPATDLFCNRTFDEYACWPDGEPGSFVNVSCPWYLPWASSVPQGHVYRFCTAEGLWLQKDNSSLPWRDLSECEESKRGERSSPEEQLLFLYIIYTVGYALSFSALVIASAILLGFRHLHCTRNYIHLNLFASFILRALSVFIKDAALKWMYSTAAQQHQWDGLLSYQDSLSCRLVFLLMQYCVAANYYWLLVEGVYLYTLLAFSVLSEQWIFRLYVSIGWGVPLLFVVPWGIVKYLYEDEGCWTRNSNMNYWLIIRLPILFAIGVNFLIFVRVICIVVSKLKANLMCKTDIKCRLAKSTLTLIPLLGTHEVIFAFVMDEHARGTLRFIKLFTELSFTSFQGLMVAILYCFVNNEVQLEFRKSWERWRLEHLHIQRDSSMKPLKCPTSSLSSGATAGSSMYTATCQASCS

With `CCCCCCCCCCCCCCCC(=O)N[C@@H](CCC(=O)N[C@@H](CCC(=O)NCCCC[C@H](NC(=O)[C@H](CCC(N)=O)NC(=O)[C@H](CCCCN)NC(=O)[C@H](CO)NC(=O)[C@H](CC(C)C)NC(=O)[C@H](CC(=O)O)NC(=O)[C@H](CO)NC(=O)[C@@H](NC(=O)[C@H](Cc1ccccc1)NC(=O)[C@@H](NC(=O)CNC(=O)[C@H](CCC(N)=O)NC(=O)[C@@H](CO)NC(=O)[C@@H](N)Cc1c[nH]cn1)[C@@H](C)O)[C@@H](C)O)C(=O)N[C@@H](CCC(=O)O)C(=O)N[C@@H](CCC(=O)O)C(=O)N[C@@H](CCC(=O)O)C(=O)N[C@@H](C)C(=O)N[C@@H](C)C(=O)N[C@@H](CCCNC(=N)N)C(=O)N[C@@H](CC(C)C)C(=O)N[C@@H](Cc1ccccc1)C(=O)N[C@H](C(=O)N[C@@H](CCC(=O)O)C(=O)N[C@@H](Cc1c[nH]c2ccccc12)C(=O)N[C@@H](CC(C)C)C(=O)NC(C)(C)C(=O)N[C@@H](C)C(=O)NCC(=O)NCC(=O)N1CCC[C@H]1C(=O)N[C@@H](CO)C(=O)N[C@@H](CO)C(=O)NCC(=O)N[C@@H](C)C(=O)N1CCC[C@H]1C(=O)N1CCC[C@H]1C(=O)N1CCC[C@H]1C(=O)N[C@@H](CO)C(N)=O)[C@@H](C)CC)C(=O)O)C(=O)O` [SEQ ID NO: 16, H-dSer-Q-G-T-F-T-S-D-L-S-K-Q-K(γE-γE-x53)-E-E-E-A-A-R-L-F-I-E-W-L-Aib-A-G-G-P-S-S-G-A-P-P-P-S-NH2] the EC50 [1] was 1.8 pM, the EC50 ([2]; Table 6) was 35.4 pM and the EC50 [3] was 7780 pM.

With `CCCCCCCCCCCCCCCC(=O)N[C@@H](CCC(=O)N[C@@H](CCC(=O)NCCCC[C@H](NC(=O)[C@H](CCC(N)=O)NC(=O)[C@H](CCCCN)NC(=O)[C@H](CO)NC(=O)[C@H](CC(C)C)NC(=O)[C@H](CC(=O)O)NC(=O)[C@H](CO)NC(=O)[C@@H](NC(=O)[C@H](Cc1ccccc1)NC(=O)[C@@H](NC(=O)CNC(=O)[C@H](Cc1c[nH]cn1)NC(=O)[C@@H](CO)NC(=O)[C@@H](N)Cc1c[nH]cn1)[C@@H](C)O)[C@@H](C)O)C(=O)N[C@@H](CC(=O)O)C(=O)N[C@@H](CCC(=O)O)C(=O)N[C@@H](CCC(=O)O)C(=O)N[C@@H](C)C(=O)N[C@@H](C)C(=O)N[C@@H](CCCNC(=N)N)C(=O)N[C@@H](CC(C)C)C(=O)N[C@@H](Cc1ccccc1)C(=O)N[C@H](C(=O)N[C@@H](CCC(=O)O)C(=O)N[C@@H](Cc1c[nH]c2ccccc12)C(=O)N[C@@H](CC(C)C)C(=O)NC(C)(C)C(=O)N[C@@H](CCCCN)C(=O)N[C@H](C)C(=O)NCC(=O)N1CCC[C@H]1C(=O)N[C@@H](CO)C(=O)N[C@@H](CO)C(=O)NCC(=O)N[C@@H](C)C(=O)N1CCC[C@H]1C(=O)N1CCC[C@H]1C(=O)N1CCC[C@H]1C(=O)N[C@@H](CO)C(N)=O)[C@@H](C)CC)C(=O)O)C(=O)O` [SEQ ID NO: 26, H-dSer-H-G-T-F-T-S-D-L-S-K-Q-K(γE-γE-x53)-D-E-E-A-A-R-L-F-I-E-W-L-Aib-K-dAla-G-P-S-S-G-A-P-P-P-S-NH2] the EC50 [1] was 2 pM, the solubility at 2 h [4, 6] was 6800 µg/mL (≈ 1460 µM) and the solubility at 2 h [4, 7] was 6700 µg/mL (≈ 1440 µM). For the same molecule, the “Stability pH 4.5” value [5] was 92.7 % remaining peptide and the “Stability pH 7.4” value [5] was 96.6 % remaining peptide.

Molecule `CCCCCCCCCCCCCCCC(=O)N[C@@H](CCC(=O)N[C@@H](CCC(=O)NCCCC[C@H](NC(=O)[C@H](CCC(N)=O)NC(=O)[C@H](CCCCN)NC(=O)[C@H](CO)NC(=O)[C@H](CC(C)C)NC(=O)[C@H](CC(=O)O)NC(=O)[C@H](CO)NC(=O)[C@@H](NC(=O)[C@H](Cc1ccccc1)NC(=O)[C@@H](NC(=O)CNC(=O)[C@H](Cc1c[nH]cn1)NC(=O)[C@@H](CO)NC(=O)[C@@H](N)Cc1c[nH]cn1)[C@@H](C)O)[C@@H](C)O)C(=O)N[C@@H](CCC(=O)O)C(=O)N[C@@H](CCC(=O)O)C(=O)N[C@@H](CCC(=O)O)C(=O)N[C@@H](C)C(=O)N[C@@H](C)C(=O)N[C@@H](CCCNC(=N)N)C(=O)N[C@@H](CC(C)C)C(=O)N[C@@H](Cc1ccccc1)C(=O)N[C@H](C(=O)N[C@@H](CCC(=O)O)C(=O)N[C@@H](Cc1c[nH]c2ccccc12)C(=O)N[C@@H](CC(C)C)C(=O)N[C@@H](CCCCN)C(=O)N[C@@H](C)C(=O)NCC(=O)NCC(=O)N1CCC[C@H]1C(=O)N[C@@H](CO)C(=O)N[C@@H](CO)C(=O)NCC(=O)N[C@@H](C)C(=O)N1CCC[C@H]1C(=O)N1CCC[C@H]1C(=O)N1CCC[C@H]1C(=O)N[C@@H](CO)C(N)=O)[C@@H](C)CC)C(=O)O)C(=O)O` [SEQ ID NO: 30, H-dSer-H-G-T-F-T-S-D-L-S-K-Q-K(γE-γE-x53)-EEEAARLFIEWLKAGGPSSGAPPPS-NH2, reference compound] has an EC50 ([2]; Table 8, comparison Aib vs. Lys in position 27) of 5.1 pM.

In the case of `CCCCCCCCCCCCCCCC(=O)N[C@@H](CCC(=O)N[C@@H](CCC(=O)NCCCC[C@H](NC(=O)[C@H](CCC(N)=O)NC(=O)[C@H](CCCCN)NC(=O)[C@H](CO)NC(=O)[C@H](CC(C)C)NC(=O)[C@H](CC(=O)O)NC(=O)[C@H](CO)NC(=O)[C@@H](NC(=O)[C@H](Cc1ccccc1)NC(=O)[C@@H](NC(=O)CNC(=O)[C@H](CCC(N)=O)NC(=O)[C@@H](CO)NC(=O)[C@@H](N)Cc1c[nH]cn1)[C@@H](C)O)[C@@H](C)O)C(=O)N[C@@H](CC(=O)O)C(=O)N[C@@H](CCC(=O)O)C(=O)N[C@@H](CCC(=O)O)C(=O)N[C@@H](C)C(=O)N[C@@H](C)C(=O)N[C@@H](CCCNC(=N)N)C(=O)N[C@@H](CC(C)C)C(=O)N[C@@H](Cc1ccccc1)C(=O)N[C@H](C(=O)N[C@@H](CCC(=O)O)C(=O)N[C@@H](Cc1c[nH]c2ccccc12)C(=O)N[C@@H](CC(C)C)C(=O)NC(C)(C)C(=O)N[C@@H](C)C(=O)N[C@H](C)C(=O)NCC(=O)N1CCC[C@H]1C(=O)N[C@@H](CO)C(=O)N[C@@H](CO)C(=O)NCC(=O)N[C@@H](C)C(=O)N1CCC[C@H]1C(=O)N1CCC[C@H]1C(=O)N1CCC[C@H]1C(=O)N[C@@H](CO)C(N)=O)[C@@H](C)CC)C(=O)O)C(=O)O` [SEQ ID NO: 12, H-dSer-Q-G-T-F-T-S-D-L-S-K-Q-K(γE-γE-x53)-D-E-E-A-A-R-L-F-I-E-W-L-Aib-A-dAla-G-P-S-S-G-A-P-P-P-S-NH2], the solubility at 2 h [4, 6] is reported as 2000 µg/mL (≈ 435 µM), the solubility at 2 h [4, 7] is reported as over 8000 µg/mL and the “Stability pH 4.5” value [5] is reported as 85.6 % remaining peptide. For the same molecule, the “Stability pH 7.4” value [5] was 90.6 % remaining peptide.

With `CCCCCCCCCCCCCCCC(=O)N[C@@H](CCC(=O)N[C@@H](CCC(=O)NCCCC[C@H](NC(=O)[C@H](CCC(N)=O)NC(=O)[C@H](CCCCN)NC(=O)[C@H](CO)NC(=O)[C@H](CC(C)C)NC(=O)[C@H](CC(=O)O)NC(=O)[C@H](CO)NC(=O)[C@@H](NC(=O)[C@H](Cc1ccccc1)NC(=O)[C@@H](NC(=O)CNC(=O)[C@H](CCC(N)=O)NC(=O)[C@@H](CO)NC(=O)[C@@H](N)Cc1c[nH]cn1)[C@@H](C)O)[C@@H](C)O)C(=O)N[C@@H](CC(=O)O)C(=O)N[C@@H](CCC(=O)O)C(=O)N[C@@H](CCC(=O)O)C(=O)N[C@@H](C)C(=O)N[C@@H](C)C(=O)N[C@@H](CCCNC(=N)N)C(=O)N[C@@H](CC(C)C)C(=O)N[C@@H](Cc1ccccc1)C(=O)N[C@H](C(=O)N[C@@H](CCC(=O)O)C(=O)N[C@@H](Cc1c[nH]c2ccccc12)C(=O)N[C@@H](CC(C)C)C(=O)NC(C)(C)C(=O)N[C@@H](CCCCN)C(=O)N[C@H](C)C(=O)NCC(=O)N1CCC[C@H]1C(=O)N[C@@H](CO)C(=O)N[C@@H](CO)C(=O)NCC(=O)N[C@@H](C)C(=O)N1CCC[C@H]1C(=O)N1CCC[C@H]1C(=O)N1CCC[C@H]1C(=O)N[C@@H](CO)C(N)=O)[C@@H](C)CC)C(=O)O)C(=O)O` [SEQ ID NO: 24, H-dSer-Q-G-T-F-T-S-D-L-S-K-Q-K(γE-γE-x53)-D-E-E-A-A-R-L-F-I-E-W-L-Aib-K-dAla-G-P-S-S-G-A-P-P-P-S-NH2] the EC50 [1] was 2.4 pM, the solubility at 2 h [4, 6] was over 8000 µg/mL and the solubility at 2 h [4, 7] was 7000 µg/mL (≈ 1500 µM). For the same molecule, the “Stability pH 4.5” value [5] was 81.8 % remaining peptide and the “Stability pH 7.4” value [5] was 95.4 % remaining peptide.
